2 compounds from US20220055989A1, “CONDENSED PYRROLES AS NOVEL BROMODOMAIN INHIBITORS” (ALBERT LUDWING UNIVERSITÄT FREIBURG, priority 2018, published 2022) can be followed below.

For one assay, the target named is T1, BRDT(1) (Homo sapiens, UniProt Q58F21).
T1 construct: T7 phage strains displaying bromodomains were grown; host or cells: T7 phage in E. coli derived from BL21
The assay is described as follows: Bromodomain assay % Ctrl determination BRDT(1). Particulars: lower numbers indicate a stronger binding. The method, then: (§1) Compounds that bind the bromodomain prevent its binding to the immobilized ligand thus reducing the amount of protein captured. […] Hits are identified by measuring the amount of bromodomain captured in test versus control samples. Bromodomain assays for % Ctrl determination: T7 phage strains displaying bromodomains were grown in parallel in 24-well blocks in an E. coli host derived from the BL21 strain. E. coli were grown to log-phase and infected with T7 phage from a frozen stock (multiplicity of infection=0.4) and incubated with shaking at 32° C. until lysis (90-150 minutes). The lysates were centrifuged (5,000×g) and filtered (0.2 μm) to remove cell debris. […] The liganded beads were blocked with excess biotin and washed with blocking buffer (SeaBlock (Pierce), 1% BSA, 0.05% Tween 20, 1 mM DTT) to remove unbound ligand and to reduce non-specific phage binding. […] Test compounds were prepared as 1000× stocks in 100% DMSO and subsequently diluted 1:25 in monoethylene glycol (MEG). The compounds were then diluted directly into the assays such that the final concentrations of DMSO and MEG were 0.1% and 2.4%, respectively. All reactions were performed in polypropylene 384-well plates in a final volume of 0.02 ml. […] The bromodomain concentration in the eluates was measured by qPCR. […]

The target in the next assay is T2, BRD4(1) (Homo sapiens, UniProt O60885).
T2 construct: BRD4-BD1 was expressed and purified as described previously; made in house
The assay is described as follows: Bromodomain assay % Ctrl determination BRD4(1). Particulars: lower numbers indicate a stronger binding. As for the experimental part: as §1

The next assay addresses T3, PBRM1(2) (Homo sapiens, UniProt Q86U86).
T3 construct: FALZ, PBRM1-BD2, BPRM1-BDS, TAF1-BD2, TAF1L-BD2; host or cells: T7 phage grown in E. coli host derived from BL21
The assay is described as follows: Bromodomain assay % Ctrl determination PBRM1(2). To be noted: lower numbers indicate a stronger binding. As for the experimental part:
as §1

In another assay the target is T4, BRD4(2) (Homo sapiens, UniProt O60885).
T4 construct: T7 phage strains displaying bromodomains were grown; host or cells: T7 phage in E. coli derived from BL21
The assay is described as follows: Bromodomain assay % Ctrl determination BRD4(2). To be noted: lower numbers indicate a stronger binding. The method, then: as §1

The subject of another assay is TRIM33(PHD, Bromo). The assay is described as follows: Bromodomain assay % Ctrl determination TRIM33(PHD, Bromo). Particulars: lower numbers indicate a stronger binding. The method, then:
as §1

Another assay has as its target T5, CREBBP (Homo sapiens, UniProt Q92793).
T5 construct: T7 phage strains displaying bromodomains were grown; host or cells: T7 phage in E. coli derived from BL21
The assay is described as follows: Bromodomain assay % Ctrl determination CREBBP. Particulars: lower numbers indicate a stronger binding. As for the experimental part: as §1

The target of another assay is T6, BRPF3 (Homo sapiens, UniProt Q9ULD4).
T6 construct: T7 phage strains displaying bromodomains were grown; host or cells: T7 phage in E. coli derived from BL21
T6 sequence (Q9ULD4 589-693 limits assumed): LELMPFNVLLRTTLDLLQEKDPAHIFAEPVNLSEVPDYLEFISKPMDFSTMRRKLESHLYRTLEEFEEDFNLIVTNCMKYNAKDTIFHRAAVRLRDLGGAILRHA
The assay is described as follows: Bromodomain assay % Ctrl determination BRPF3. To be noted: lower numbers indicate a stronger binding. As for the experimental part:
as §1

The target in a further assay is T7, EP300 (Homo sapiens, UniProt Q09472).
T7 construct: T7 phage strains displaying bromodomains were grown; host or cells: T7 phage in E. coli derived from BL21
T7 sequence (Q09472 1049-1156 limits assumed): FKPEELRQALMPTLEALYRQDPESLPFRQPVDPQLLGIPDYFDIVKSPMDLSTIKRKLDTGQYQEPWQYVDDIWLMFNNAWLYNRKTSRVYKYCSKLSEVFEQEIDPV
The assay is described as follows: Bromodomain assay % Ctrl determination EP300. Particulars: lower numbers indicate a stronger binding. As for the experimental part: as §1

The next assay concerns the target T8, TRIM24(PHD, Bromo) (Homo sapiens, UniProt O15164).
T8 construct: T7 phage strains displaying bromodomains were grown in parallel; host or cells: T7 phage grown in E. coli host derived from BL21
The assay is described as follows: BROMOscan Kd determination TRIM24(PHD, Bromo.). In kind it is binding. The method, then:
(§2) Bromodomain profiling was carried out on the basis of BROMOscan™. This platform accounted for the indirect determination of the dissociation constants between 19 bromodomains and the compound of formula (13), by binding competition against a reference immobilized ligand. Compounds that bind the bromodomain prevent its binding to the immobilized ligand thus reducing the amount of protein captured. […] Hits are identified by measuring the amount of bromodomain captured in test versus control samples. Bromodomain assays for Kd determination: T7 phage strains displaying bromodomains were grown in parallel in 24-well blocks in an E. coli host derived from the BL21 strain. E. coli were grown to log-phase and infected with T7 phage from a frozen stock (multiplicity of infection=0.4) and incubated with shaking at 32° C. until lysis (90-150 minutes). The lysates were centrifuged (5,000×g) and filtered (0.2 μm) to remove cell debris. […] Kds were determined using an 11-point 3-fold compound dilution series with one DMSO control point. […] The bromodomain concentration in the eluates was measured by qPCR. […] Most Kds were determined using a compound top concentration=10,000 nM. […] Binding Constants (Kds): Binding constants (Kds) were calculated with a standard dose-response curve using the Hill equation: The Hill Slope was set to −1. […]

A further assay deals with T9, BAZ2B (Homo sapiens, UniProt Q9UIF8).
T9 construct: T7 phage strains displaying bromodomains were grown in parallel; made in house; host or cells: T7 phage grown in an E. coli host derived from the BL21 strain
T9 sequence (Q9UIF8 2060-2164 limits assumed): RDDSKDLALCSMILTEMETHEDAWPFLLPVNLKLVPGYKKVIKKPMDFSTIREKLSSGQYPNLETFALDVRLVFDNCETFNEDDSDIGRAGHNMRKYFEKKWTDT
The assay is described as follows: BROMOscan Kd determination BAZ2B. In kind it is binding. The method, then: as §2

The next assay deals with T10, TAF1(2) (Homo sapiens, UniProt P21675).
T10 construct: FALZ, PBRM1-BD2, BPRM1-BDS, TAF1-BD2, TAF1L-BD2; host or cells: T7 phage grown in E. coli host derived from BL21
T10 sequence (P21675 1519-1628 limits assumed): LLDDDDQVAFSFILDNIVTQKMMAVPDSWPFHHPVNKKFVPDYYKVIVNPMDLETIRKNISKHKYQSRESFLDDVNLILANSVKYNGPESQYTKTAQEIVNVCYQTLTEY
The assay is described as follows: BROMOscan Kd determination TAF1(2). It counts as binding. The method, then:
as §2

Another assay concerns the target T11, BRD4(1, 2) (Homo sapiens, UniProt O60885).
T11 construct: T7 phage strains displaying bromodomains were grown in parallel; made in house; host or cells: T7 phage grown in an E. coli host derived from the BL21 strain
The assay is described as follows: BROMOscan Kd determination BRD4(1, 2). It counts as binding. The method, then:
as §2

The next assay deals with T12, BAZ2A (Homo sapiens, UniProt Q9UIF9).
T12 construct: T7 phage strains displaying bromodomains were grown in parallel; made in house; host or cells: T7 phage grown in an E. coli host derived from the BL21 strain
T12 sequence (Q9UIF9 1793-1897 limits assumed): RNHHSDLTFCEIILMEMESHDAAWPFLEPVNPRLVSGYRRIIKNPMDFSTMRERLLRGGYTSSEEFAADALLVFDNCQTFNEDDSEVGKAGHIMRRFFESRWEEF
The assay is described as follows: BROMOscan Kd determination BAZ2A. In kind it is binding. As for the experimental part: as §2

A further assay has as its target T13, PBRM1(5) (Homo sapiens, UniProt Q86U86).
T13 construct: T7 phage strains displaying bromodomains were grown in parallel; host or cells: T7 phage grown in E. coli host derived from BL21
The assay is described as follows: BROMOscan Kd determination PBRM1(5). In kind it is binding. The method, then:
as §2

Another assay has as its target T14, BRD8(2) (Homo sapiens, UniProt Q9H0E9).
T14 construct: T7 phage strains displaying bromodomains were grown; host or cells: T7 phage in E. coli derived from BL21
The assay is described as follows: BROMOscan Kd determination BRD8(2). It counts as binding. The method, then:
as §2

The target of a further assay is T15, TRIM24 (Bromo.) (Homo sapiens, UniProt O15164).
T15 construct: T7 phage strains displaying bromodomains were grown in parallel; host or cells: T7 phage grown in E. coli host derived from BL21
T15 sequence (O15164 899-1004 limits assumed): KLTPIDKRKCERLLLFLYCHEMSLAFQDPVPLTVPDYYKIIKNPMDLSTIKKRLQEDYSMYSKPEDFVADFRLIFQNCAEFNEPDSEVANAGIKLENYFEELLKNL
The assay is described as follows: BROMOscan Kd determination TRIM24 (Bromo.). In kind it is binding. As for the experimental part:
as §2

T8 sequence (O15164 824-1006 limits assumed): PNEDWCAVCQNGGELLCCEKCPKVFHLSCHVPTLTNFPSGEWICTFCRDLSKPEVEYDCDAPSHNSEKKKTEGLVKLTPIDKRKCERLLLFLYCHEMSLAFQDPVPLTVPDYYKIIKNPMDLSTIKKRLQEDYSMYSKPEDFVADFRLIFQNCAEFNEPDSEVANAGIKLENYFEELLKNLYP
T14 sequence (Q9H0E9 1099-1207 limits assumed): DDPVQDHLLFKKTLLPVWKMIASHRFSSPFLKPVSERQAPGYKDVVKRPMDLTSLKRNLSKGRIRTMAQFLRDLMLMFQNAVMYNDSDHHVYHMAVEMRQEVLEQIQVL
T5 sequence (Q92793 1085-1192 limits assumed): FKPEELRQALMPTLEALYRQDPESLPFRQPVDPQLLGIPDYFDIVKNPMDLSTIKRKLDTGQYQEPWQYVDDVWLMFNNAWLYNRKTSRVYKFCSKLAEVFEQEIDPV
T3 sequence (Q86U86 177-287 limits assumed): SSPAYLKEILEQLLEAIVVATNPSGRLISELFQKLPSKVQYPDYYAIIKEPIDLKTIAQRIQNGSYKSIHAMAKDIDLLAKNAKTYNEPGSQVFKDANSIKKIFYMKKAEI
T13 sequence (Q86U86 653-763 limits assumed): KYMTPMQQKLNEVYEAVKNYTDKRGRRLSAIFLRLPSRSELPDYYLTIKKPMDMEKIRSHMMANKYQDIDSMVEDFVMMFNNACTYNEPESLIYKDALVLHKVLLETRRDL

As to `COc1ccc(S(=O)(=O)N2CCOCC2)cc1NC(=O)c1[nH]c(C)c2c1CCCCC2=O` [Compound 13, N-(2-methoxy-5-(morpholinosulfonyl)phenyl)-3-methyl-4-oxo-2,4,5,6,7,8-hexahydrocyclohepta[c]pyrrole-1-carboxamide], the “% Ctrl @ 10 000 nM BRDT(1)” value on BRDT(1) was determined as 0 % Ctrl. In addition, at BRD4(1), the “% Ctrl @ 10 000 nM BRD4(1)” value was found to be 0 % Ctrl. For the same compound, on PBRM1(2), the “% Ctrl @ 10 000 nM PBRM1(2)” value was found to be 75 % Ctrl. The “% Ctrl @ 10 000 nM BRD4(2)” value on BRD4(2) stood at 0 % Ctrl. In addition, the “% Ctrl @ 10 000 nM TRIM33(PHD, Bromo)” value in the assay on TRIM33(PHD, Bromo) is recorded as 60 % Ctrl. The “% Ctrl @ 10 000 nM CREBBP” value on CREBBP is 4.7 % Ctrl. In addition, on BRPF3, the “% Ctrl @ 10 000 nM BRPF3” value is reported as 35 % Ctrl. Also, at EP300, the “% Ctrl @ 10 000 nM EP300” value turned out to be 1.4 % Ctrl.
Regarding `Cc1[nH]c(-c2cc(N)ccc2Cl)c2c1C(=O)CCCC2` [Compound 23], the Kd – broadly, the free concentration of one partner at which half of the binding sites on the other are occupied at equilibrium, for simple one-to-one binding – was 5.3 µM on TRIM24(PHD, Bromo); 1.8 µM at BAZ2B; 4.1 µM at TAF1(2); 0.16 µM on BRD4(1, 2); 1.9 µM on BAZ2A; 3.8 µM at PBRM1(5). In addition, the Kd at BRD8(2) is over 10 µM; on TRIM24 (Bromo.), 1.4 µM.
